Tests used:
MCF7 = experiment: Cytotoxicity against Homo sapiens (human) MCF7 cells after 96 hr by MTT assay; type: functional, cell-based; conditions: MCF7, 96 h
PC-3 = experiment: Cytotoxicity against Homo sapiens (human) PC3 cells after 96 hr by MTT assay; type: functional, cell-based; conditions: PC-3, 96 h
[1] = target: Methionine synthase (Homo sapiens) (UniProt Q99707); experiment: Inhibition of methionine synthase (unknown origin) by cell free assay; parameters: concentration or dose not given beside the values; conditions: concentration not given here
Sequence of Methionine synthase (Homo sapiens) (Q99707 whole entry): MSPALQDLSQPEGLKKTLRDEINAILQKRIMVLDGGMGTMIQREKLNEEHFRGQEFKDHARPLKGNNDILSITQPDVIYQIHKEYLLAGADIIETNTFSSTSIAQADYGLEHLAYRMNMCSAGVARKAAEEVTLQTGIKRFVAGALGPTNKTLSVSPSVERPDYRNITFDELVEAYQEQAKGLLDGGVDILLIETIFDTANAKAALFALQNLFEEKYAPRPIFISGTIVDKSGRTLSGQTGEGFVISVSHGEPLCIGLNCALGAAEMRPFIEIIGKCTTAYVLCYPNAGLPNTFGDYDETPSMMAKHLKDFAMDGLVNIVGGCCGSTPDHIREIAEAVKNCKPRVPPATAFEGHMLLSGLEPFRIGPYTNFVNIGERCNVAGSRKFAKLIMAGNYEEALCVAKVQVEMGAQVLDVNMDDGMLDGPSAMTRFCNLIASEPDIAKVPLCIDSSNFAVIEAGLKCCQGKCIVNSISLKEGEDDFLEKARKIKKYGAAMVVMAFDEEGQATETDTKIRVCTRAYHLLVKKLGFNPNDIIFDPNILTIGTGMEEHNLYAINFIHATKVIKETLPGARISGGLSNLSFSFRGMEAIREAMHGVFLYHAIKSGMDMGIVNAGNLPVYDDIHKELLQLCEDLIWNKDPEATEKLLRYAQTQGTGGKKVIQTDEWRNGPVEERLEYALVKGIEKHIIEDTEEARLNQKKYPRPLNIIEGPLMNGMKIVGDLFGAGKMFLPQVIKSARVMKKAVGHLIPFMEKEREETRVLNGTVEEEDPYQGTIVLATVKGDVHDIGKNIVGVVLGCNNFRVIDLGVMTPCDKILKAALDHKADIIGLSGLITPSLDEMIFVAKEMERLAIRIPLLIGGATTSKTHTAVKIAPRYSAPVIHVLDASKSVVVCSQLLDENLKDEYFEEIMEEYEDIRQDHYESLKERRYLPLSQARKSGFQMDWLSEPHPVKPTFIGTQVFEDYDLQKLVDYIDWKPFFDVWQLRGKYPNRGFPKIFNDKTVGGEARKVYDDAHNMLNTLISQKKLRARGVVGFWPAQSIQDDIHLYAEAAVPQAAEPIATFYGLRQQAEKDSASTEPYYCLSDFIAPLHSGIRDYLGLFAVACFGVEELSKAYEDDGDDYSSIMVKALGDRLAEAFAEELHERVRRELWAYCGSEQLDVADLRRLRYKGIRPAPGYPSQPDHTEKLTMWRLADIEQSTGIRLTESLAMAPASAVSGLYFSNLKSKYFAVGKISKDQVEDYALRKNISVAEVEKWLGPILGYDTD

| SMILES | IC50 (MCF7) [µM] | IC50 (PC-3) [µM] | inhibition [1] [%] |
| --- | --- | --- | --- |
| O=[N+]([O-])c1ccc2nc(CCl)cnc2c1 | 66 | 70 | 55 |
| Cc1ccc(NCc2cnc3cc([N+](=O)[O-])ccc3n2)cc1 | 68 | 57 | 65 |
| O=[N+]([O-])c1ccc2nc(CNc3ccc(Cl)cc3)cnc2c1 | 75 | 70 | 45 |
| O=[N+]([O-])c1ccc2nc(CNc3ccccc3)cnc2c1 | 61 | 56 | 65.9 |
| CNC(=O)c1ccc(NCc2cnc3cc([N+](=O)[O-])ccc3n2)cc1 | 47 | 49 | – |
| CCNC(=O)c1ccc(NCc2cnc3cc([N+](=O)[O-])ccc3n2)cc1 | 49 | 66 | – |
| O=C(O)c1ccc(NCc2cnc3cc([N+](=O)[O-])ccc3n2)cc1 | 53 | 45 | 89 |
| Cc1cccc(NCc2cnc3cc([N+](=O)[O-])ccc3n2)c1 | 79 | 77 | 45 |

Reference: ChEMBL document CHEMBL3045876, “Molecular modeling studies and synthesis of novel quinoxaline derivatives with potential anti-cancer activity as inhibitors of methionine synthase” (Med Chem Res, 2013)
